In patent US11091478B2 (Fochon Pharmaceuticals, Ltd., priority 2017, dated 2021):

Legend:
DOHH2 cells = experiment: Cell proliferation assay (MTS), DOHH2 cells, 120 h; type: cell-based; conditions: Homo sapiens, DOHH-2, 120 h
Procedure, shortened: (§1)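 Cells in RPMI-1640 with 10% FBS were seeded at 5000/well, left overnight at 37° C., 5% CO2, then exposed to compound at 10000 down to 1.5 nM (nine concentrations) for 72 h (RS4;11) or 120 h (DOHH2). Viability was read by MTS, 2 h, absorbance at 490/650 nm; IC50 calculated.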

RS4;11 cells = experiment: Cell proliferation assay (MTS), RS4;11 cells, 72 h; type: cell-based; conditions: Homo sapiens, RS4-11, 72 h
Procedure, shortened: as §1

Row | IC50 (RS4;11 cells) [nM] | SMILES | IC50 (DOHH2 cells) [nM]
1 | 1 | C[C@@H]1CN(C[C@@H]2COc3cc(S(=O)(=O)NC(=O)c4ccc(N5CCN(CC6=C(c7ccc(Cl)cc7)CC(C)(C)CC6)CC5)cc4Oc4cnc5[nH]ccc5c4)cc([N+](=O)[O-])c3N2)CCN1C1COC1 [Example 2-22, 2-((1H-pyrrolo[2,3-b]pyridin-5-yl)oxy)-4-(4-((4′-chloro-5,5-dimethyl-3,4,5,6-tetra-hydro-[1,1′-biphenyl]-2-yl)methyl)piperazin-1-yl)-N-(((R)-3-(((R)-3-methyl-4-(oxetan-3-yl)piperazin-1-yl)methyl)-5-nitro-3,4-dihydro-2H-benzo[b][1,4]oxazin-7-yl)sulfonyl) benzamide] | 2
2 | 7 | C[C@@H]1CN(C[C@@H]2COc3cc(S(=O)(=O)NC(=O)c4ccc(N5CCN(CC6=C(c7ccc(Cl)cc7)CC(C)(C)CC6)CC5)cc4Oc4cnc5[nH]ccc5c4)cc([N+](=O)[O-])c3N2)CCO1 [Example 2-23, 2-((1H-pyrrolo[2,3-b]pyridin-5-yl)oxy)-4-(4-((4′-chloro-5,5-dimethyl-3,4,5,6-tetra-hydro-[1,1′-biphenyl]-2-yl)methyl)piperazin-1-yl)-N-(((R)-3-(((R)-2-methylmorpholino)methyl)-5-nitro-3,4-dihydro-2H-benzo[b][1,4]oxazin-7-yl)sulfonyl)benzamide] | 33
3 | 72 | CC1(C)CCC(CN2CCN(c3ccc(C(=O)NS(=O)(=O)c4cc5c(c([N+](=O)[O-])c4)N[C@@H](CN4CC(O)C4)CO5)c(Oc4cnc5[nH]ccc5c4)c3)CC2)=C(c2ccc(Cl)cc2)C1 [Example 2-24, (S)-2-((1H-pyrrolo[2,3-b]pyridin-5-yl)oxy)-4-(4-((4′-chloro-5,5-dimethyl-3,4,5,6-tetra-hydro-[1,1′-biphenyl]-2-yl)methyl)piperazin-1-yl)-N-((3-((3-hydroxyazetidin-1-yl)meth-yl)-5-nitro-3,4-dihydro-2H-benzo[b][1,4]oxazin-7-yl)sulfonyl)benzamide] | 115
4 | 8 | CC1(C)CCC(CN2CCN(c3ccc(C(=O)NS(=O)(=O)c4cc5c(c([N+](=O)[O-])c4)N[C@@H](CN4CC(C)(O)C4)CO5)c(Oc4cnc5[nH]ccc5c4)c3)CC2)=C(c2ccc(Cl)cc2)C1 [Example 2-25, (S)-2-((1H-pyrrolo[2,3-b]pyridin-5-yl)oxy)-4-(4-((4′-chloro-5,5-dimethyl-3,4,5,6-tetra-hydro-[1,1′-biphenyl]-2-yl)methyl)piperazin-1-yl)-N-((3-((3-hydroxy-3-methylazetidin-1-yl)methyl)-5-nitro-3,4-dihydro-2H-ben-zo[b][1,4]oxazin-7-yl)sulfonyl)benzamide] | 10
5 | 6 | C[C@@H]1CN(C[C@H]2COc3cc(S(=O)(=O)NC(=O)c4ccc(N5CCN(CC6=C(c7ccc(Cl)cc7)CC(C)(C)CC6)CC5)cc4Oc4cnc5[nH]ccc5c4)cc([N+](=O)[O-])c3N2)CCN1C [Example 2-26, 2-((1H-pyrrolo[2,3-b]pyridin-5-yl)oxy)-4-(4-((4′-chloro-5,5-dimethyl-3,4,5,6-tetrahydro-[1,1′-biphenyl]-2-yl)methyl)piperazin-1-yl)-N-(((S)-3-(((R)-3,4-dimethylpiperazin-1-yl)methyl)-5-nitro-3,4-dihydro-2H-benzo [b][1,4]oxazin-7-yl)sulfonyl)benzamide] | 19
6 | 1 | C[C@H]1CN(C[C@H]2COc3cc(S(=O)(=O)NC(=O)c4ccc(N5CCN(CC6=C(c7ccc(Cl)cc7)CC(C)(C)CC6)CC5)cc4Oc4cnc5[nH]ccc5c4)cc([N+](=O)[O-])c3N2)CCN1C [Example 2-27, 2-((1H-pyrrolo[2,3-b]pyridin-5-yl)oxy)-4-(4-((4′-chloro-5,5-dimethyl-3,4,5,6-tetra-hydro-[1,1′-biphenyl]-2-yl)methyl)piperazin-1-yl)-N-(((S)-3-(((S)-3,4-dimethylpiperazin-1-yl)methyl)-5-nitro-3,4-dihydro-2H-benzo [b][1,4]oxazin-7-yl)sulfonyl)benzamide] | 12
7 | 1 | CC1(C)CCC(CN2CCN(c3ccc(C(=O)NS(=O)(=O)c4cc5c(c([N+](=O)[O-])c4)N[C@@H](CN4CCN(C6COC6)CC4)CO5)c(Oc4cnc5[nH]ccc5c4)c3)CC2)=C(c2ccc(Cl)cc2)C1 [Example 2-28, (S)-2-((1H-pyrrolo[2,3-b]pyridin-5-yl)oxy)-4-(4-((4′-chloro-5,5-dimethyl-3,4,5,6-tetra-hydro-[1,1′-biphenyl]-2-yl)methyl)piperazin-1-yl)-N-((5-nitro-3-((4-(oxetan-3-yl)piper-azin-1-yl)methyl)-3,4-dihydro-2H-benzo[b] [1,4]oxazin-7-yl)sulfonyl)benzamide] | 1
8 | 1 | C[C@@H]1CN(C[C@H]2COc3cc(S(=O)(=O)NC(=O)c4ccc(N5CCN(CC6=C(c7ccc(Cl)cc7)CC(C)(C)CC6)CC5)cc4Oc4cnc5[nH]ccc5c4)cc([N+](=O)[O-])c3N2)CCN1C1COC1 [Example 2-29, 2-((1H-pyrrolo[2,3-b]pyridin-5-yl)oxy)-4-(4-((4′-chloro-5,5-dimethyl-3,4,5,6-tetrahydro-[1,1′-biphenyl]-2-yl)methyl)piperazin-1-yl)-N-(((S)-3-(((R)-3-methyl-4-(oxetan-3-yl)piperazin-1-yl)methyl)-5-nitro-3,4-dihydro-2H-benzo[b][1,4]oxazin-7-yl)sulfonyl) benzamide] | 7
9 | 1 | C[C@H]1CN(C[C@H]2COc3cc(S(=O)(=O)NC(=O)c4ccc(N5CCN(CC6=C(c7ccc(Cl)cc7)CC(C)(C)CC6)CC5)cc4Oc4cnc5[nH]ccc5c4)cc([N+](=O)[O-])c3N2)CCN1C1COC1 [Example 2-30] | 8
10 | 7 | C[C@H]1CN(C[C@H]2COc3cc(S(=O)(=O)NC(=O)c4ccc(N5CCN(CC6=C(c7ccc(Cl)cc7)CC(C)(C)CC6)CC5)cc4Oc4cnc5[nH]ccc5c4)cc([N+](=O)[O-])c3N2)CCO1 [Example 2-31, 2-((1H-pyrrolo[2,3-b]pyridin-5-yl)oxy)-4-(4-((4′-chloro-5,5-dimethyl-3,4,5,6-tetrahydro-[1,1′-biphenyl]-2-yl)methyl)piperazin-1-yl)-N-(((S)-3-(((S)-2-methylmorpholino)meth-yl)-5-nitro-3,4-dihydro-2H-benzo[b][1,4]oxazin-7-yl)sulfonyl)benzamide] | 18
11 | 18 | C[C@@H]1CN(C[C@H]2COc3cc(S(=O)(=O)NC(=O)c4ccc(N5CCN(CC6=C(c7ccc(Cl)cc7)CC(C)(C)CC6)CC5)cc4Oc4cnc5[nH]ccc5c4)cc([N+](=O)[O-])c3N2)CCO1 [Example 2-32, 2-((1H-pyrrolo[2,3-b]pyridin-5-yl)oxy)-4-(4-((4′-chloro-5,5-dimethyl-3,4,5,6-tetrahydro-[1,1′-biphenyl]-2-yl)methyl)piperazin-1-yl)-N-(((S)-3-(((R)-2-methylmorpholino)meth-yl)-5-nitro-3,4-dihydro-2H-benzo[b][1,4]oxazin-7-yl)sulfonyl)benzamide] | 34
12 | 11 | CC1(C)CCC(CN2CCN(c3ccc(C(=O)NS(=O)(=O)c4cc5c(c([N+](=O)[O-])c4)N[C@H](CCN=S(C)(C)=O)CO5)c(Oc4cnc5[nH]ccc5c4)c3)CC2)=C(c2ccc(Cl)cc2)C1 [Example 2-33, (R)-2-((1H-pyrrolo[2,3-b]pyridin-5-yl)oxy)-4-(4-((4′-chloro-5,5-dimethyl-3,4,5,6-tetra-hydro-[1,1′-biphenyl]-2-yl)methyl)piperazin-1-yl)-N-((3-(2-((dimethyl(oxo)-l6-sulfanyl-idene)amino)ethyl)-5-nitro-3,4-dihydro-2H-benzo[b][1,4]oxazin-7-yl)sulfonyl)benza-mide] | 25
13 | 14 | CC1(C)CCC(CN2CCN(c3ccc(C(=O)NS(=O)(=O)c4cc5c(c([N+](=O)[O-])c4)N[C@H](CCN4CC(O)C4)CO5)c(Oc4cnc5[nH]ccc5c4)c3)CC2)=C(c2ccc(Cl)cc2)C1 [Example 2-34, (R)-2-((1H-pyrrolo[2,3-b]pyridin-5-yl)oxy)-4-(4-((4′-chloro-5,5-dimethyl-3,4,5,6-tetra-hydro-[1,1′-biphenyl]-2-yl)methyl)piperazin-1-yl)-N-((3-(2-(3-hydroxyazetidin-1-yl)eth-yl)-5-nitro-3,4-dihydro-2H-benzo[b][1,4]oxazin-7-yl)sulfonyl)benzamide] | 41
14 | 5 | CC1(C)CCC(CN2CCN(c3ccc(C(=O)NS(=O)(=O)c4cc5c(c([N+](=O)[O-])c4)N[C@H](CCN4CC(C)(O)C4)CO5)c(Oc4cnc5[nH]ccc5c4)c3)CC2)=C(c2ccc(Cl)cc2)C1 [Example 2-35, (R)-2-((1H-pyrrolo[2,3-b]pyridin-5-yl)oxy)-4-(4-((4′-chloro-5,5-dimethyl-3,4,5,6-tetra-hydro-[1,1′-biphenyl]-2-yl)methyl)piperazin-1-yl)-N-((3-(2-(3-hydroxy-3-methylazetidin-1-yl)ethyl)-5-nitro-3,4-dihydro-2H-ben-zo[b][1,4]oxazin-7-yl)sulfonyl)benzamide] | 30
15 | 7 | C[C@@H]1CN(CC[C@@H]2COc3cc(S(=O)(=O)NC(=O)c4ccc(N5CCN(CC6=C(c7ccc(Cl)cc7)CC(C)(C)CC6)CC5)cc4Oc4cnc5[nH]ccc5c4)cc([N+](=O)[O-])c3N2)CCN1C [Example 2-36, 2-((1H-pyrrolo[2,3-b]pyridin-5-yl)oxy)-4-(4-((4′-chloro-5,5-dimethyl-3,4,5,6-tetrahydro-[1,1′-biphenyl]-2-yl)methyl)piperazin-1-yl)-N-(((R)-3-(2-((R)-3,4-dimethylpiperazin-1-yl)ethyl)-5-nitro-3,4-dihydro-2H-benzo [b][1,4]oxazin-7-yl)sulfonyl)benzamide] | 33
